This note sets out measurements from patent US10829473B2, “Modulators of the cystic fibrosis transmembrane conductance regulator protein and methods of use” (AbbVie Overseas S.Á.R.L., priority 2017, dated 2020).

For the experiment, the target named is T1, F508delCFTR (Homo sapiens, UniProt P13569, DEL508-508).
T1 construct: expressed in transfected cells; host or cells: CFBE41o- human lung derived epithelial cells (CFBE41o-F508delCFTR-HRP), doxycycline-inducible
As to the kind of experiment: Cell Surface Expression-Horse Radish Peroxidase (CSE-HRP) Assay.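 As to EC50 (with co-corrector): co-corrector chromenyl benzoic acid corrector at 2 or 3 µM.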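 As to Maximum % activity (without co-corrector): % of on-plate positive control chromenyl benzoic acid corrector at 2 or 3 µM.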 In kind it is cell-based. The following applies: for Maximum % activity (with co-corrector) / Emax: maximum at any tested concentration; for Emax: read-out: Maximum % activity (without co-corrector). The method in brief: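 Corrector compounds were given as 8-point 3-fold series from 20 or 30 μM, with or without a 2 μM co-corrector, for 18-24 h at 33 °C. Surface HRP was read by luminol luminescence as % of positive control; variable-Hill-slope sigmoidal fitting gave EC50 from triplicate plates.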

Setting [1] is: test compound alone, without co-corrector, read-out: EC50 (without co-corrector).
The mark [2] stands for this setting: with co-corrector, read-out: EC50 (with co-corrector).

Where two headings read alike, the source gives them in different places.

T1 sequence (P13569 with tags, fused parts or gaps DEL508-508): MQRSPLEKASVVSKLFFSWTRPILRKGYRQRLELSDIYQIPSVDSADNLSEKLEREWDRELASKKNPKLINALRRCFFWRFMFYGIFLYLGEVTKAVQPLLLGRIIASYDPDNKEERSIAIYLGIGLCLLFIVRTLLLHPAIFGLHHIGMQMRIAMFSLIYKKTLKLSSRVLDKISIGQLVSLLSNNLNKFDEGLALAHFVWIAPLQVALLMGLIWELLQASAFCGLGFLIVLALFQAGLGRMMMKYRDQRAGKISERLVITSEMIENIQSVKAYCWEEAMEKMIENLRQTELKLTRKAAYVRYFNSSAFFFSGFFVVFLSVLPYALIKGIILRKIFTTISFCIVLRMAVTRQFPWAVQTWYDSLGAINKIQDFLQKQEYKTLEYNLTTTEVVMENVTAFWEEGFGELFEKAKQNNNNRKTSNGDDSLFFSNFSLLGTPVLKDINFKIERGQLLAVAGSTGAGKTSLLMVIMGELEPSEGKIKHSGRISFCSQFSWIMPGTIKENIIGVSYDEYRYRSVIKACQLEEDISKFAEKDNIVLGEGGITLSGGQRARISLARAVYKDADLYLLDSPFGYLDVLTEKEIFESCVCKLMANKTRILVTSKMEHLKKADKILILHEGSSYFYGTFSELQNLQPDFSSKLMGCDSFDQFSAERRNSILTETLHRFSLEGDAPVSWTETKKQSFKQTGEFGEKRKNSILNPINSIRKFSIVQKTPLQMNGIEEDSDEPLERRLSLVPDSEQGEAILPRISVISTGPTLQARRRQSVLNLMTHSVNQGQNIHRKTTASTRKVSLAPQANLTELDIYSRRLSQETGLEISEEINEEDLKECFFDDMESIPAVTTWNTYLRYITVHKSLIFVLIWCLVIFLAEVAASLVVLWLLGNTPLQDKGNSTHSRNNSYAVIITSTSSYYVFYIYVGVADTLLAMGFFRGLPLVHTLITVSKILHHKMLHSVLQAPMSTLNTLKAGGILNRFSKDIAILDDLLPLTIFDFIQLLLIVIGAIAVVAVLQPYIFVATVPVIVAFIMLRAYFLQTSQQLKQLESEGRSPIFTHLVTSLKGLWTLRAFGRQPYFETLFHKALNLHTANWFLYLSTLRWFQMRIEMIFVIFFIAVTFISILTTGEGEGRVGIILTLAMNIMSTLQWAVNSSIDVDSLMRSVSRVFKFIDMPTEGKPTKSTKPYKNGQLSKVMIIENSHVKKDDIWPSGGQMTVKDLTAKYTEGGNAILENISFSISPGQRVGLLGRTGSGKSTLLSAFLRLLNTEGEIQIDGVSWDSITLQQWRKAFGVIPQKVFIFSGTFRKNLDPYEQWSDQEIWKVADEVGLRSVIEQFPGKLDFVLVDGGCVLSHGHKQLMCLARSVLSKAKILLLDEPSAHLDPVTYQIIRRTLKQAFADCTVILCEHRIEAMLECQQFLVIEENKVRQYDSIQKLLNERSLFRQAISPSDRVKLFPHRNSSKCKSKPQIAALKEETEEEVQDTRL

For the compound `COc1ccc2c(S(=O)(=O)NC(=O)C3(c4cc(C5CC5)cnc4OCC(C)C)CC3)cccc2n1` [II-93], the EC50 was under 3 µM under setting [1] and under 3 µM under setting [2]. For the setting “with co-corrector”, the “Maximum % activity (with co-corrector)” value is recorded as “+++ (≥350)”. Besides, for the setting “without co-corrector”, the Emax is over 150%.
With `COc1ccc2c(S(=O)(=O)NC(=O)C3(c4cc(C5CCC5)cnc4OCC(C)C)CC3)cccc2n1` [II-94], the EC50 by setting is: under setting [1], under 3 µM; under setting [2], under 3 µM. The “Maximum % activity (with co-corrector)” value (with co-corrector) was “+++ (≥350)”. Further, where the note is “without co-corrector”, the Emax was over 150%.
For `COc1ccc2c(S(=O)(=O)NC(=O)C3(c4cc(C5CC5)cnc4OC(C)C)CC3)cccc2n1` [II-95], the EC50 is, setting by setting: under setting [1], under 3 µM; under setting [2], under 3 µM. The “Maximum % activity (with co-corrector)” value (with co-corrector) is given as “+++ (≥350)”. Moreover, the Emax (without co-corrector) was over 150%.
For `CCOC(C)(C)c1ccc(OC)c(C2(C(=O)NS(=O)(=O)c3cccc4ncccc34)CC2)c1` [II-96], the EC50 reads like this: under setting [1], under 3 µM; under setting [2], under 3 µM. Moreover, the “Maximum % activity (with co-corrector)” value (with co-corrector) was “+++ (≥350)”. Besides, the Emax (without co-corrector) was over 150%.
As for `CCOc1ccc(C(C)(C)OC)cc1C1(C(=O)NS(=O)(=O)c2cccc3ncccc23)CC1` [II-97], the EC50 was under 3 µM under setting [1] and under 3 µM under setting [2]. In addition, the “Maximum % activity (with co-corrector)” value (with co-corrector) was “+++ (≥350)”. For the setting “without co-corrector”, the Emax is over 150%.
Turning to `CCc1ccc(OC(F)F)c(C2(C(=O)NS(=O)(=O)c3cccc4ncccc34)CC2)c1` [II-98], the EC50 by setting is: under setting [1], under 3 µM; under setting [2], under 3 µM. The “Maximum % activity (with co-corrector)” value (with co-corrector) is listed as “+++ (≥350)”. Where the note is “without co-corrector”, the Emax is over 150%.
Take `COc1ccc(C(C)(C)OC)cc1C1(C(=O)NS(=O)(=O)c2cccc3nc(C)ccc23)CC1` [II-99]: the EC50 runs as follows: under setting [1], under 3 µM; under setting [2], under 3 µM. Besides, for the setting “with co-corrector”, the “Maximum % activity (with co-corrector)” value is reported as “+++ (≥350)”. Besides, the Emax (without co-corrector) was over 150%.
`COc1ccc(C2(OC)CCC2)cc1C1(C(=O)NS(=O)(=O)c2cccc3nc(C)ccc23)CC1` [II-100]: the EC50 by setting is: under setting [1], 3 to 10 µM; under setting [2], under 3 µM. Besides, the “Maximum % activity (with co-corrector)” value (with co-corrector) is given as “+++ (≥350)”. Also, the Emax (without co-corrector) is over 150%.
The like results for `Cc1ccc(OC(F)F)c(C2(C(=O)NS(=O)(=O)c3cccc4nc(C)ccc34)CC2)c1` [II-101] were, in that order, under 3 µM, under 3 µM, “+++ (≥350)” and over 150%.
In the case of `Cc1ccc2c(S(=O)(=O)NC(=O)C3(c4cc(Cl)ccc4OC(F)F)CC3)cccc2n1` [II-102], the EC50 under setting [1] lay within 3 to 10 µM and the EC50 under setting [2] is under 3 µM. The “Maximum % activity (with co-corrector)” value (with co-corrector) is on record as “+++ (≥350)”. Moreover, the Emax (without co-corrector) was over 150%.
The like results for `COC[C@H](C)Oc1ccc(C)cc1C1(C(=O)NS(=O)(=O)c2cccc3nc(C)ccc23)CC1` [II-104] were, in that order, under 3 µM, under 3 µM, “+++ (≥350)” and over 150%.
Regarding `CCOc1ccc(C(C)(C)COC)cc1C1(C(=O)NS(=O)(=O)c2cccc3nc(C)ccc23)CC1` [II-105], the concentration giving a half-maximal response (EC50) reads like this: under setting [1], under 3 µM; under setting [2], under 3 µM. Also, the “Maximum % activity (with co-corrector)” value (with co-corrector) is reported as “+++ (≥350)”. Further, the Emax (without co-corrector) was over 150%.
As for `CCOC(C)(C)c1ccc(OC(F)F)c(C2(C(=O)NS(=O)(=O)c3cccc4ncccc34)CC2)c1` [II-106], the EC50 by setting is: under setting [1], 3 to 10 µM; under setting [2], 3 to 10 µM. Further, for the setting “with co-corrector”, the “Maximum % activity (with co-corrector)” value is reported as “+++ (≥350)”. Besides, the Emax (without co-corrector) is over 150%.
As for `CCOC(C)(C)c1ccc(OC(F)F)c(C2(C(=O)NS(=O)(=O)c3cccc4nc(C)ccc34)CC2)c1` [II-107], the half-maximal effective concentration (EC50) was under 3 µM under setting [1] and under 3 µM under setting [2]. For the same compound, under “with co-corrector”, the “Maximum % activity (with co-corrector)” value is given as “+++ (≥350)”. Besides, for the setting “without co-corrector”, the Emax was over 150%.
In the case of `COC(C)(C)c1ccc(OC(F)F)c(C2(C(=O)NS(=O)(=O)c3cccc4ncccc34)CC2)c1` [II-108], the EC50 runs as follows: under setting [1], 3 to 10 µM; under setting [2], 3 to 10 µM. In addition, the “Maximum % activity (with co-corrector)” value (with co-corrector) was “+++ (≥350)”. In addition, the Emax (without co-corrector) was over 150%.
With `CCOCC(C)(C)c1ccc(OC)c(C2(C(=O)NS(=O)(=O)c3cccc4ncccc34)CC2)c1` [II-110], the concentration giving a half-maximal response (EC50) under setting [1] is under 3 µM and the EC50 under setting [2] is under 3 µM. Where the note is “with co-corrector”, the “Maximum % activity (with co-corrector)” value was “+++ (≥350)”. Besides, under “without co-corrector”, the Emax was over 150%.
On to `CCOCC(C)(C)c1ccc(OC)c(C2(C(=O)NS(=O)(=O)c3cccc4nc(C)ccc34)CC2)c1` [II-111], for which the EC50 reads like this: under setting [1], under 3 µM; under setting [2], under 3 µM. For the same compound, the “Maximum % activity (with co-corrector)” value (with co-corrector) is “+++ (≥350)”. The Emax (without co-corrector) is over 150%.
Consider `CC(C)COc1ncc(N(C)C)cc1C1(C(=O)NS(=O)(=O)c2cccc3ncccc23)CC1` [II-112], for which the EC50 runs as follows: under setting [1], under 3 µM; under setting [2], under 3 µM. Further, the “Maximum % activity (with co-corrector)” value (with co-corrector) is reported as “+++ (≥350)”. Besides, the Emax (without co-corrector) was over 150%.
Take `COCC(C)(C)c1ccc(OC)c(C2(C(=O)NS(=O)(=O)c3cccc4nc(C)ccc34)CC2)c1` [II-113]: the EC50 by setting is: under setting [1], under 3 µM; under setting [2], under 3 µM. The “Maximum % activity (with co-corrector)” value (with co-corrector) is “+++ (≥350)”. Besides, the Emax (without co-corrector) was over 150%.
Regarding `CCc1ccc(O[C@H]2CCOC2)c(C2(C(=O)NS(=O)(=O)c3cccc4nc(C)ccc34)CC2)c1` [II-115], the EC50 reads like this: under setting [1], under 3 µM; under setting [2], under 3 µM. The “Maximum % activity (with co-corrector)” value (with co-corrector) was “+++ (≥350)”. The Emax (without co-corrector) is over 150%.
With `Cc1ccc(O[C@H]2CCOC2)c(C2(C(=O)NS(=O)(=O)c3cccc4ncccc34)CC2)c1` [II-117], the 50% effective concentration (EC50) is 3 to 10 µM under setting [1] and under 3 µM under setting [2]. For the setting “with co-corrector”, the “Maximum % activity (with co-corrector)” value is recorded as “+++ (≥350)”. For the same compound, the Emax (without co-corrector) was over 150%.
